Measurements: PMC11087268, “A folate inhibitor exploits metabolic differences in Pseudomonas aeruginosa for narrow-spectrum targeting” (Nature Microbiology, 2024)
≈ marks a conversion by molar mass, not a printed value.

Columns and labels:
[1] = test system: Escherichia coli MG1655; test: MIC against E. coli MG1655 in LB broth; format: cell-based; conditions: 16 h, 37 °C, OD600
Experimental: (§1) Overnight cultures were diluted 1:150 in LB broth and added to a 96-well plate. Antibiotics were serially diluted 1:2 and added to columns of the 96-well plate and grown at 37 °C with continuous shaking. Cell growth was measured using optical density at 600 nm (OD600). MIC assays were performed in either BioTek Synergy HT or Tecan InfiniteM200 Pro microplate readers.

[2] = test system: Salmonella typhimurium CMCC 50115; test: MIC (WuXi, Mueller–Hinton broth) against S. typhimurium; format: cell-based; conditions: Salmonella enterica, performed by WuXi
Experimental: (§2) Bacterial colonies (4–8) of strains of interest were vortexed in saline and adjusted to an OD600 of 0.2. Strains were diluted 1:200 into CAMHB media in 96-well plates. Antibiotics were serially diluted 1:3 in DMSO, and 1 μl of each dilution was added to bacteria. The plates were incubated for 18–20 h at 37 °C before observation.

[3] = test system: Pseudomonas aeruginosa PA01; test: MIC against P. aeruginosa PA01 in LB broth; format: cell-based; conditions: 16 h, 37 °C, OD600
Experimental: as §1

[4] = test system: S. aureus USA300; test: Growth with or without TMI supplementation and fluorofolin, S. aureus USA300; format: cell-based, Staphylococcus aureus; conditions: fluorofolin 2X MIC
Experimental: (§3) Where listed, growth media were prepared according manufacturer recommendations: LB broth and LB broth supplemented with 0.3 mM thymine (BD Biosciences 244610, Alfa Aesar A15879), 0.3 mM methionine (Sigma-Aldrich M9625), 0.3 mM inosine (EMD Millipore 4060), cation-adjusted Mueller–Hinton II broth (CAMHB) (BD 212322) or 0.3 mM thymidine (Sigma-Aldrich T1895), Gutnick minimal media (1.0 g l^−1 K2SO4, 13.5 g l^−1 K2HPO4, 4.7 g l^−1 KH2PO4, 0.1 g l^−1 MgSO4·7H2O, 10 mM NH4Cl as a nitrogen source and 0.4% w/v glucose as a carbon source)[65].
(§4) Extended Data Fig. 3 TMI supplementation can also rescue other species from fluorofolin DHFR inhibition. […] (f) P. aeruginosa PA14 or E. coli lptd4213 treated with fluorofolin 50 μg/mL in the presence or absence of 0.3 mM thymidine. (g) E. coli lptd4213 treated with fluorofolin 50 μg/mL and SMX (78.1 μg/mL) in the presence or absence of 0.3 mM thymidine or 0.3 mM TMI supplementation, Curves represent average optical at 600 nm (OD600) of 2 biological replicates. Means are shown. Source data

[5] = test system: Escherichia coli ATCC BAA-198; test: MIC (WuXi, Mueller–Hinton broth) against E. coli ATCC BAA-198; format: cell-based; conditions: ATCCBAA198
Experimental: as §2

[6] = test system: HLF (human lung fibroblast); test: Mammalian cell cytotoxicity, HLF; format: cell-based; conditions: 72 h, CyQUANT, read-out: IC50 Fluorofolin
Experimental: HK-2 (500 cells per well) (ATCC CRL-2190), HLF (500 cells per well) (Cell Applications 506K-05a), WI-38 (500 cells per well) (ATCC CCL-75) or PBMC (5,000 cells per well) (TPCS PB010C) cells were seeded in white opaque 384-well plates. After 24 h, DMSO or compounds were added in 3-fold dilutions and cells incubated for 72 h. For PBMC, CellTiter-Glo reagent was added in equal volume and incubated for 30 min, after which luminescence was read. For other cell types, CyQUANT detection reagent was added in equal volume and cells incubated for 1 h, after which fluorescence was read with standard green filter set […]. Cell toxicity was evaluated by Pharmaron.

[7] = test system: P. aeruginosa PA14 mexA transposon mutant; test: microbe, parasite or virus in culture; format: cell-based; conditions: Pseudomonas aeruginosa
Experimental: as §1
(§5) P. aeruginosa PA14 transposon mutants were generated by the Ausubel Lab (https://pa14.mgh.harvard.edu/cgi-bin/pa14/home.cgi)[67]. The MICs of fluorofolin and TMP against strains with disrupted MexA, MexB and OprM were determined as above and compared to the parental strain. As transposon mutants in MexB were represented twice in this collection, the MIC was confirmed across both mutant strains.

[8] = test system: P. aeruginosa PA14 mexB transposon mutant; test: microbe, parasite or virus in culture; format: cell-based; conditions: Pseudomonas aeruginosa
Experimental: as §1, §5

[9] = test system: P. aeruginosa PA14 oprM transposon mutant; test: microbe, parasite or virus in culture; format: cell-based; conditions: Pseudomonas aeruginosa
Experimental: as §1, §5

[10] = test system: P. aeruginosa PA14 mexS L46F mutant; test: MIC against fluorofolin-resistant PA14 mexS L46F mutant; format: cell-based; conditions: Pseudomonas aeruginosa
Experimental: as §1
Single colonies were picked and inoculated into fresh LB broth. This process was repeated for a total of ten passages. At each passage, the MIC was recalculated and compared to a culture that had not been previously exposed to fluorofolin, which was also grown as a control to confirm antibiotic potency. Cells from each passage were stored as a frozen stock.

[11] = test system: Staphylococcus aureus NRS384; test: MIC (WuXi, Mueller–Hinton broth) against S. aureus NRS384; format: cell-based
Experimental: as §2

[12] = test system: E. coli lptD4213; test: Growth of E. coli lptd4213 with fluorofolin (with or without SMX) and thymidine or TMI; format: cell-based, Escherichia coli; conditions: fluorofolin 50 μg/mL, 0.3 mM thymidine
Experimental: as §3, §4

[13] = test system: Staphylococcus epidermidis EGM-206; test: MIC against S. epidermidis EGM-206 in LB broth; format: cell-based; conditions: EGM206, 16 h, 37 °C, OD600
Experimental: as §1

[14] = test system: PA14; test: Checkerboard assay fluorofolin / sulfamethoxazole; format: cell-based, Pseudomonas aeruginosa; conditions: for FIC index: PA14, SMX 0.000 ug/mL
Experimental: Cells were seeded in a similar manner as described above for MIC calculations. […] Fractional inhibitory concentrations (FICs) were calculated as [[…], where [fluorofolin] and [SMX] are the concentrations of compounds in a given well, which were divided by the concentration of drug at the MIC for each compound.

## Nc1nc(N)c2c(ccc3c2ccn3Cc2ccnc(F)c2)n1 [fluorofolin]
[1]
  MIC: 0.625 µg/mL
[2]
  MIC: 0.03 µg/mL (≈ 0.0973 µM)
[3]
  MIC: 6.25 µg/mL
[4]
  rescue of growth inhibition by TMI supplementation: could also be rescued from fluorofolin growth inhibition by TMI supplementation
[5]
  MIC: 7.11 µg/mL (≈ 23.1 µM)
[6]
  IC50: 17.2 µg/mL (≈ 55.9 µM)
[7]
  MIC: 1.5 µg/mL
[8]
  MIC: 1.5 µg/mL
[9]
  MIC: 1.5 µg/mL
[10]
  MIC: 62.5 µg/mL
[11]
  MIC: 0.03 µg/mL (≈ 0.0973 µM)
[12]
  rescue of growth inhibition by thymidine supplementation alone: Rescue from fluorofolin inhibition was also shown
[13]
  MIC: 0.312 µg/mL
[14]; Fluorofolin 3.125 ug/mL
  FIC index: 1
[14]; Fluorofolin 6.25 ug/mL
  FIC index: 2
[14]; Fluorofolin 12.5 ug/mL
  FIC index: 4
[14]; Fluorofolin 25 ug/mL
  FIC index: 8
[14]; Pseudomonas aeruginosa, PA14, read-out: MIC of fluorofolin in the presence of SMX
  MIC: 0.4 µg/mL
